In patent publication US8945540B2, “Compositions for enhancing the antibacterial activity of myeloperoxidase and methods of use thereof” (Exoxemis, Inc., priority 2008, dated 2015):
In brackets after ≈: the same amount, converted by molar mass.

Key:
[1] = system: E. faecalis; assay: MIC, modified CLSI broth microdilution; assay type: cell-based, Enterococcus faecalis
Source text: (§1) All clinical isolates were obtained from the culture collection of Eurofins Medinet Anti-Infective Services (Herndon, Va.), and represent diverse geographical regions. They were originally derived from clinical specimens and identified using standard microbiological methods (see Table 33 below for details). Escherichia coli ATCC 25922, Staphylococcus aureus ATCC 25923, S. aureus ATCC 29213, Pseudomonas aeruginosa ATCC 27853, and Enterococcus faecalis ATCC 29212 were used as quality control strains for the Enhanced MPO Solution and comparator agents to validate the modified Clinical and Laboratory Standards Institute (CLSI, formally NCCLS) broth microdilution method.
Modifications were made to the standard broth microdilution method to accommodate the rapid in vitro activity of the Enhanced MPO Solution as described below. Each antimicrobial agent and Concentrate solution was diluted in double strength cation-adjusted Mueller-Hinton Broth (CAMHB) and dispensed in mircrodilution trays. All β-hemolytic streptococci were tested in double strength CAMHB supplemented with 5% lysed horse blood. Isolates were prepared by suspending several colonies (four to six) from an overnight culture on Trypticase Soy Agar (TSA) with 5% sheep blood into sterile saline and the density adjusted to a 0.5 McFarland standard (˜10^8 CFU/ml). Standardized bacterial suspensions were further diluted in double strength Diluent solution so that approximately 5×10^5 CFU/ml was mixed with serial drug dilutions. […]
MIC ranges were established for the Enhanced MPO Solution by testing over 20 replicates of one lot of the Enhanced MPO Solution against S. aureus ATCC 29213 and E. coli ATCC 25922. Quality control parameters were then determined for the Enhanced MPO Solution by testing three lots of the Concentrate solution used for preparation of the final Enhanced MPO Solution formulation. […] The effects of modifying the standard broth microdilution test were also assessed with antibiotics with known quality control limits to validate the CLSI broth microdilution method.

[2] = system: E. faecium; assay: MIC, modified CLSI broth microdilution; assay type: cell-based; details: Enterococcus faecium, 22 clinical isolates
Method: (§3) Modifications were made to the standard broth microdilution method to accommodate the rapid in vitro activity of the Enhanced MPO Solution as described below. Each antimicrobial agent and Concentrate solution was diluted in double strength cation-adjusted Mueller-Hinton Broth (CAMHB) and dispensed in mircrodilution trays. All β-hemolytic streptococci were tested in double strength CAMHB supplemented with 5% lysed horse blood. Isolates were prepared by suspending several colonies (four to six) from an overnight culture on Trypticase Soy Agar (TSA) with 5% sheep blood into sterile saline and the density adjusted to a 0.5 McFarland standard (˜10^8 CFU/ml). Standardized bacterial suspensions were further diluted in double strength Diluent solution so that approximately 5×10^5 CFU/ml was mixed with serial drug dilutions. […] The microdilution trays were incubated in ambient air at 35° C. for 18 to 24 h.

[3] = system: S. aureus; assay: MIC, modified CLSI broth microdilution; assay type: cell-based, Staphylococcus aureus
Source text: as §1
Modifications were made to the standard broth microdilution method to accommodate the rapid in vitro activity of the Enhanced MPO Solution as described below. Each antimicrobial agent and Concentrate solution was diluted in double strength cation-adjusted Mueller-Hinton Broth (CAMHB) and dispensed in mircrodilution trays. All β-hemolytic streptococci were tested in double strength CAMHB supplemented with 5% lysed horse blood. Isolates were prepared by suspending several colonies (four to six) from an overnight culture on Trypticase Soy Agar (TSA) with 5% sheep blood into sterile saline and the density adjusted to a 0.5 McFarland standard (˜10^8 CFU/ml). Standardized bacterial suspensions were further diluted in double strength Diluent solution so that approximately 5×10^5 CFU/ml was mixed with serial drug dilutions. The addition of Diluent solution to the Concentrate solution activates the enzyme system, which in turn exerts its rapid mode of action. The microdilution trays were incubated in ambient air at 35° C. for 18 to 24 h.
MIC ranges were established for the Enhanced MPO Solution by testing over 20 replicates of one lot of the Enhanced MPO Solution against S. aureus ATCC 29213 and E. coli ATCC 25922. Quality control parameters were then determined for the Enhanced MPO Solution by testing three lots of the Concentrate solution used for preparation of the final Enhanced MPO Solution formulation. Testing was performed in duplicate against S. aureus ATCC 29213 and E. coli ATCC 25922. The effects of modifying the standard broth microdilution test were also assessed with antibiotics with known quality control limits to validate the CLSI broth microdilution method.

[4] = system: S. epidermidis; assay: MIC, modified CLSI broth microdilution; assay type: cell-based, Staphylococcus epidermidis
Method: as §3

[5] = system: S. agalactiae; assay: MIC, modified CLSI broth microdilution (CAMHB with 5% lysed horse blood); assay type: cell-based; details: Streptococcus agalactiae, 34 clinical isolates
Method: as §3

[6] = system: S. pyogenes; assay: as above; assay type: cell-based; details: Streptococcus pyogenes, 33 clinical isolates
Method: as §3

[7] = system: streptococci groups C, F, and G; assay: as above; assay type: cell-based, Streptococcus Group C, Group F, Group G; details: for MIC Range: range for all strains tested
Method: as §3

[8] = system: Staphylococcus aureus; assay: Microbicidal activity of the myeloperoxidase system (p-MPO, glucose oxidase, glucose) with amino acids in the presence of blood, CFU plate counts; synergy determination from these CFU; assay type: cell-based; details: for Average Viability CFU/ml 50 min / Log Reduction 50 min: single amino acid 2.5 mM, MPO 4.7 U/ml, GO 4.2 U/ml
Outline: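 Microbicidal activity of the MPO–glucose oxidase–glucose system against S. aureus with amino acids was assessed in 3% whole blood. Reactions of 1 mL were run at room temperature or 37° C and stopped with catalase. Surviving CFU were counted on trypticase soy agar. For each pair, Actual CFU was divided by Predicted CFU and multiplied by 100. This value was compared with variability-based thresholds to classify synergism, antagonism or additivity.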

[9] = system: Staphylococcus aureus; assay: Control: microbicidal activity of the amino acid or analogue alone (no glucose, MPO, glucose oxidase) in the presence of blood; assay type: cell-based; details: amino acid alone 5 mM; MPO 0; GO 0; no glucose; blood; without replication
Source text: As a control to determine the microbicidal activity of the amino acids alone, the foregoing procedure was followed without replication, except in the absence of glucose, MPO, and glucose oxidase.

[10] = system: Bacillus subtilis spores; assay: Myeloperoxidase system with beta alanine and L-alanine against spores in the presence of blood; assay type: cell-based; details: 2 hours, MPO 25 μg/mL (9.4 U/mL), GO 8.3 U/mL
Method: The effect of a two-way combination of beta alanine and L-alanine, as potential enhancing agents, for MPO microbicidal action against Bacillus subtilis spores in the presence of blood, was determined following the procedure of Example 2. However, in this case each test contained a single low concentration of MPO (25 μg/mL or 9.4 U/mL) and glucose oxidase (8.3 U/mL). […] The effect of both L-alanine and beta alanine alone on the myeloperoxidase antimicrobial activity against Bacillus subtilis spores was tested for comparison.
The nature of the relationship between beta alanine and L-alanine was examined following the synergy determination method described above.

[11] = system: Candida albicans; assay: Myeloperoxidase system with amino acids in the presence of blood (Example 9); assay type: cell-based; details: MPO 25 μg/mL, GO 8.3 U/mL, L-valine/glycine 2.5 μmol/mL each, beta alanine 5 μmol/mL
Method: (§2) The effect of two way combinations of amino acids glycine and valine, and individually beta alanine, as potential enhancing agents for MPO microbicidal action against Pseudomonas aeruginosa, Staphylococcus aureus and Candida albicans, in the presence of blood, was determined following the procedure of Example 2. Each organism was tested against a single low concentration of MPO (25 μg/mL or 9.4 U/mL) and glucose oxidase (8.3 U/mL). The two amino acid activators were each added at a final concentration of 2.5 μmol/mL and the individual amino acid, beta alanine, was tested at a single concentration of 5 μmol/mL. The effect of no amino acid containing formulations on the myeloperoxidase antimicrobial activity against these organisms was tested for comparison.

[12] = system: Pseudomonas aeruginosa; assay: as above; assay type: cell-based; details: 60 minutes, MPO 25 μg/mL, GO 8.3 U/mL, L-valine/glycine 2.5 μmol/mL each, beta alanine 5 mM
Method: as §2

[13] = Enterococcus faecalis, 33 clinical isolates
[14] = Staphylococcus aureus, 109 clinical isolates
[15] = Staphylococcus epidermidis, 31 clinical isolates
[16] = Streptococcus Group G, 18 clinical isolates
[17] = Table 4, amino acid 5 mM (none: 0 mM), MPO 38 U/ml, GO 33.3 U/ml, blood
[18] = Table 14, in the presence of blood, 50 min

Structure (SMILES): C/C(=C\C(=O)OCCCCCCCCC(=O)O)C[C@@H]1OC[C@H](C[C@@H]2O[C@H]2[C@@H](C)[C@H](C)O)[C@@H](O)[C@H]1O [mupirocin]
- MIC50 [1, 13]: 32 µg/mL (≈ 63.9 µM)
- MIC90 [1, 13]: > 32 µg/mL
- MIC range, upper end ([1]; clinical isolates): > 32 µg/mL
- MIC50 [2]: 0.25 µg/mL (≈ 0.499 µM)
- MIC90 [2]: 0.25 µg/mL (≈ 0.499 µM)
- MIC Range ([2]; range for all strains tested): 0.06 to 0.5 µg/mL
- MIC by the modified method versus published quality control ranges ([3]; S. aureus ATCC 29213, inoculum prepared in Diluent solution): within previously published quality control ranges
- MIC50 [3, 14]: 0.06 µg/mL (≈ 0.12 µM)
- MIC90 [3, 14]: 0.12 µg/mL (≈ 0.24 µM)
- MIC range, upper end ([3]; clinical isolates): > 32 µg/mL
- MIC50 [4, 15]: 0.12 µg/mL (≈ 0.24 µM)
- MIC90 [4, 15]: > 32 µg/mL
- MIC range, upper end ([4]; clinical isolates): > 32 µg/mL
- MIC50 [5]: 0.5 µg/mL (≈ 0.999 µM)
- MIC90 [5]: 0.5 µg/mL (≈ 0.999 µM)
- MIC Range ([5]; range for all strains tested): 0.12 to 2 µg/mL
- MIC50 [6]: 0.12 µg/mL (≈ 0.24 µM)
- MIC90 [6]: 0.25 µg/mL (≈ 0.499 µM)
- MIC Range ([6]; range for all strains tested): 0.06 to 0.5 µg/mL
- MIC Range ([7]; Streptococcus Group C, 8 clinical isolates): 0.06 to 0.5 µg/mL
- MIC Range ([7]; Streptococcus Group F, 2 clinical isolates): 0.25-0.25 μg/ml
- MIC50 [7, 16]: 0.12 µg/mL (≈ 0.24 µM)
- MIC90 [7, 16]: 0.12 µg/mL (≈ 0.24 µM)
- MIC Range [7, 16]: 0.06 to 0.5 µg/mL

Structure (SMILES): NCCC(=O)O [Beta alanine]
- Log 10 (CFU + 1) Survivors ([8]; MPO 25 μg/mL, AA 5 mM, 30 min): 0.0
- Log 10 (CFU + 1) Survivors ([8]; MPO 25 μg/mL, AA 5 mM, 60 min): 0.0
- Log 10 (CFU + 1) Survivors ([8]; MPO 25 μg/mL, AA […], 30 min): 0.0
- Log 10 (CFU + 1) Survivors ([8]; MPO 25 μg/mL, AA […], 60 min): 0.0
- Log 10 (CFU + 1) Survivors ([8]; MPO 100 μg/mL, AA 5 mM, 30 min): 0.0
- Log 10 (CFU + 1) Survivors ([8]; MPO 100 μg/mL, AA 5 mM, 60 min): 0.0
- Log 10 (CFU + 1) Survivors ([8]; MPO 100 μg/mL, AA 20 mM, 30 min): 0.0
- Log 10 (CFU + 1) Survivors ([8]; MPO 100 μg/mL, AA 20 mM, 60 min): 0.0
- Average Viability CFU/ml 60 min [8, 17]: 0 CFU/ml
- Log Reduction 60 min [8, 17]: 7.4
- Average Viability CFU/ml 50 min [8, 18]: 6000000 CFU/ml
- Log Reduction 50 min [8, 18]: 0.7
- Average Viability CFU/ml 50 min ([8]; blood): 505000 CFU/ml
- Log Reduction 50 min ([8]; blood): 1.7
- increased performance over the MPO system without amino acids ([8]; within 30 minutes, MPO 25 μg/mL, GO 8.3 U/mL, blood, 5 μmol/mL): 6.8 logs
- kill of S. aureus (in words) ([8]; within 60 minutes, lower concentrations of amino acid and MPO, blood): complete kill
- Average Viability CFU/ml 60 min [9]: 25500000 CFU/ml
- Log Reduction 60 min [9]: 0.0
- CFU survivors [10]: 3100000 CFU
- improvement in microbicidal activity over the MPO system without amino acids [11]: 1.9 logs
- enhancing effect over the MPO system without amino acids [12]: 4.6 logs
